16 molecules from US20260092061A1, “COMPOUNDS FOR TARGETED PROTEIN DEGRADATION” (Amphista Therapeutics Limited, priority 2022, published 2026) can be followed below.

The target in this experiment is T1, BRD9 (Homo sapiens, UniProt Q9H8M2).
T1 sequence (Q9H8M2 1-597): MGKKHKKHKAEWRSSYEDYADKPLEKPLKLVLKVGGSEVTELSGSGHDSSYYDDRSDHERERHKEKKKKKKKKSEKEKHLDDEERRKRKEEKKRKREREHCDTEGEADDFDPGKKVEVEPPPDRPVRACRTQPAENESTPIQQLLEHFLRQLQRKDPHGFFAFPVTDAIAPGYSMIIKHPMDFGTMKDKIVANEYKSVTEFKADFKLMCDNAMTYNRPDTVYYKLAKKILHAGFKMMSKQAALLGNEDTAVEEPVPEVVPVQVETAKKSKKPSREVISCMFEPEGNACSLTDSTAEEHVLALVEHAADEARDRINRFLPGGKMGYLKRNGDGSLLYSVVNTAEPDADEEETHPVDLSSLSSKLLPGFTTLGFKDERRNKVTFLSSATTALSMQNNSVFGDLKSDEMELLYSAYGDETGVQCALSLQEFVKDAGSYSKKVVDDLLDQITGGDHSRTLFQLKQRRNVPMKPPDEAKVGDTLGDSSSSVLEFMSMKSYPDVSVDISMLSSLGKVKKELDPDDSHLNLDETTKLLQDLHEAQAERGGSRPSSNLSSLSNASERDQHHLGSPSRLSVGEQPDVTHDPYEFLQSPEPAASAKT
Put plainly: Degradation of BRD9 (IF), immunofluorescence in MV4-11 cells, 24 hours (Assay Protocol 2). The format is cell-based. More on the design: A suspension of MV4-11 cells (ATCC CRL-9591) was prepared; host or cells: MV4-11. The conditions noted are these: BRD9 degradation; for DC50: read-out: DC50. In short, it runs like this: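 % BRD9 remaining, scaled between DMSO (high) and 100 nM CFT-8634 (low) control wells, derives from mean Alexa 647 contrast in central nuclei by high-content imaging. MV4-11 cells had 24 h compound exposure at 37° C. before PFA fixation, Triton permeabilisation and anti-BRD9 E4Q3F immunostaining.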

Where [1] appears, read: MV4-11, Assay protocol 2, read-out: Dmax.

Like-named read-outs stand apart in the source and are kept apart here.

`COc1cc(-c2cn(C)c(=O)c(C)c2C)cc(OC)c1CN1CCN(Cc2ccc3c(c2)[C@@H](C)N(C(=O)/C(C#N)=C/C(C)(C)CN2CCOCC2)CC3)C2(CC2)C1` (single isomer, unassigned) [Compound C40, (E/Z)-2-(7-((7-(2,6-dimethoxy-4-(1,4,5-trimethyl-6-oxo-1,6-dihydropyridin-3-yl)benzyl)-4,7-diazaspiro[2.5]octan-4-yl)methyl)-1-methyl-1,2,3,4-tetrahydroisoquinoline-2-carbonyl)-4,4-dimethyl-5-morpholinopent-2-enenitrile]: the DC50 (Assay protocol 2) lay in the range of 0.00125 to 0.01 µM. Further, under setting [1], the Dmax lay within 70 to 75%.
For `COc1cc(-c2cn(C)c(=O)c(C)c2C)cc(OC)c1CN1CCN(Cc2ccc3c(c2)[C@@H](C)N(C(=O)/C(C#N)=C/C(C)(C)CO)CC3)C2(CC2)C1` (single isomer, unassigned) [Compound C41, (E/Z)-2-(7-((7-(2,6-dimethoxy-4-(1,4,5-trimethyl-6-oxo-1,6-dihydropyridin-3-yl)benzyl)-4,7-diazaspiro[2.5]octan-4-yl)methyl)-1-methyl-1,2,3,4-tetrahydroisoquinoline-2-carbonyl)-5-hydroxy-4,4-dimethylpent-2-enenitrile], the DC50 (Assay protocol 2) was 0.00125 to 0.01 µM. The Dmax under setting [1] is greater than 75%.
On the same counts, the results for `COc1cc(-c2cn(C)c(=O)c(C)c2C)cc(OC)c1CN1CC(N(C)c2ccc3c(c2)[C@H](C)N(C(=O)/C(C#N)=C/C(C)(C)C)CC3)C1` (single isomer, unassigned) [Compound C44] are 0.00125 to 0.01 µM and 70 to 75%.
The corresponding values for `COc1cc(-c2cn(C)c(=O)c(C)c2C)cc(OC)c1CN1CCC2(CCN(c3ccc4c(c3)[C@H](C)N(C(=O)/C(C#N)=C/C(C)(C)C)CC4)C2)C1` (single isomer, unassigned) [Compound C52] are 0.01 to 0.025 µM and 40 to 70%.
The corresponding values for `COc1cc(-c2cn(C)c(=O)c(C)c2C)cc(OC)c1CN1CCC(Cc2cccc3c2CCN(C(=O)/C(C#N)=C/C(C)(C)C)[C@H]3C)CC1` (single isomer, unassigned) [Compound C59, (E/Z)-2-(5-((1-(2,6-dimethoxy-4-(1,4,5-trimethyl-6-oxo-1,6-dihydropyridin-3-yl)benzyl)piperidin-4-yl)methyl)-1-methyl-1,2,3,4-tetrahydroisoquinoline-2-carbonyl)-4,4-dimethylpent-2-enenitrile] are 0.00125 to 0.01 µM and 40 to 70%.
In the case of `COc1cc(-c2cn(C)c(=O)c(C)c2C)cc(OC)c1CN1CCC(Cc2cccc3c2CCN(C(=O)/C(C#N)=C/C(C)(C)CF)[C@H]3C)CC1` (single isomer, unassigned) [Compound C60, (E/Z)-2-(5-((1-(2,6dimethoxy-4-(1,4,5-trimethyl-6-oxo-1,6-dihydropyridin-3-yl)benzyl)piperidin-yl)methyl)-1-methyl-1,2,3,4-tetrahydroisoquinoline-2-carbonyl)-5-fluoro-4,4-dimethylpent-2-enenitrile], the DC50 (Assay protocol 2) was in the range of 0.00125 to 0.01 µM. Further, the Dmax under setting [1] is 70 to 75%.
Take `COc1cc(-c2cn(C)c(=O)c(C)c2C)cc(OC)c1CN1CC2CC(C1)N2Cc1ccc2c(c1)[C@H](C)N(C(=O)/C(C#N)=C/C(C)(C)C)CC2` (single isomer, unassigned) [Compound C63, (E/Z)-2-(7-((3-(2,6-dimethoxy-4-(1,4,5-trimethyl-6-oxo-1,6-dihydropyridin-3-yl)benzyl)-3,6-diazabicyclo[3.1.1]heptan-6-yl)methyl)-1-methyl-1,2,3,4-tetrahydroisoquinoline-2-carbonyl)-4,4-dimethylpent-2-enenitrile]: for the setting “Assay protocol 2”, the DC50 lay within 0.00125 to 0.01 µM. Also, the Dmax under setting [1] is greater than 75%.
Turning to `COc1cc(-c2cn(C)c(=O)c(C)c2C)cc(OC)c1CN1CC2CC(C1)N2Cc1ccc2c(c1)[C@@H](C)N(C(=O)/C(C#N)=C/C(C)(C)C)CC2` (single isomer, unassigned) [Compound C64, (E/Z)-2-(7-((3-(2,6-dimethoxy-4-(1,4,5-trimethyl-6-oxo-1,6-dihydropyridin-3-yl)benzyl)-3,6-diazabicyclo[3.1.1]heptan-6-yl)methyl)-1-methyl-1,2,3,4-tetrahydroisoquinoline-2-carbonyl)-4,4-dimethylpent-2-enenitrile], for the setting “Assay protocol 2”, the DC50 was 0.025 to 1 µM. Besides, the maximal degradation (Dmax) under setting [1] was in the range of 40 to 70%.
The corresponding values for `COc1cc(-c2cn(C)c(=O)c(C)c2C)cc(OC)c1CN1CCC(N(C)c2ccc3c(c2)[C@@H](C)N(C(=O)/C(C#N)=C/C(C)(C)C)CC3)CC1` (single isomer, unassigned) [Compound C65] are 0.00125 to 0.01 µM and 40 to 70%.
The corresponding values for `COc1cc(-c2cn(C)c(=O)c(C)c2C)cc(OC)c1CN1CCC2(CC1)CCN(c1ccc3c(c1)[C@H](C)N(C(=O)/C(C#N)=C/C(C)(C)C)CC3)C2` (single isomer, unassigned) [Compound C66] are 0.00125 to 0.01 µM and 40 to 70%.
On the same counts, the results for `COc1cc(-c2cn(C)c(=O)c(C)c2C)cc(OC)c1CN1CC(N(C)Cc2ccc3c(c2)[C@H](C)N(C(=O)/C(C#N)=C/C(C)(C)C)CC3)C1` (single isomer, unassigned) [Compound C70, (E/Z)-2-(7-(((1-(2,6-dimethoxy-4-(1,4,5-trimethyl-6-oxo-1,6-dihydropyridin-3-yl)benzyl)460zetidine-4-yl)(methyl)amino)methyl)-1-methyl-1,2,3,4-tetrahydroisoquinoline-2-carbonyl)-4,4-dimethylpent-2-enenitrile] are 0.025 to 1 µM and 40 to 70%.
Regarding `COc1cc(-c2cn(C)c(=O)c(C)c2C)cc(OC)c1CN1CC(N(C)Cc2ccc3c(c2)[C@@H](C)N(C(=O)/C(C#N)=C/C(C)(C)C)CC3)C1` (single isomer, unassigned) [Compound C71, (E/Z)-2-(7-(((1-(2,6-dimethoxy-4-(1,4,5-trimethyl-6-oxo-1,6-dihydropyridin-3-yl)benzyl)460zetidine-4-yl)(methyl)amino)methyl)-1-methyl-1,2,3,4-tetrahydroisoquinoline-2-carbonyl)-4,4-dimethylpent-2-enenitrile], for the setting “Assay protocol 2”, the DC50 is 0.025 to 1 µM. Further, the maximal degradation (Dmax) under setting [1] is 40 to 70%.
The corresponding values for `COc1cc(-c2cn(C)c(=O)c(C)c2C)cc(OC)c1CN1CCC(Oc2ccc3c(c2)[C@H](C)N(C(=O)/C(C#N)=C/C(C)(C)C)CC3)CC1` (single isomer, unassigned) [Compound C73, (E/Z)-2-(7-((1-(2,6-dimethoxy-4-(1,4,5-trimethyl-6-oxo-1,6-dihydropyridin-3-yl)benzyl)piperidin-4-yl)oxy)-1-methyl-1,2,3,4-tetrahydroisoquinoline-2-carbonyl)-4,4-dimethylpent-2-enenitrile] are 0.00125 to 0.01 µM and greater than 75%.
Consider `COc1cc(-c2cn(C)c(=O)c(C)c2C)cc(OC)c1CN1CCN(Cc2cccc3c2CCN(C(=O)/C(C#N)=C/C(C)(C)CF)C3C(C)C)C2(CC2)C1` (single isomer, unassigned) [Compound C76, (E/Z)-2-(5-((7-(2,6-dimethoxy-4-(1,4,5-trimethyl-6-oxo-1,6-dihydropyridin-3-yl)benzyl)-4,7-diazaspiro[2.5]octan-4-yl)methyl)-1-isopropyl-1,2,3,4-tetrahydroisoquinoline-2-carbonyl)-5-fluoro-4,4-dimethylpent-2-enenitrile], for which the DC50 (Assay protocol 2) was in the range of 0.00125 to 0.01 µM. For the same molecule, the Dmax under setting [1] is 70 to 75%.
With `COc1cc(-c2cn(C)c(=O)c(C)c2C)cc(OC)c1CN1CCN(Cc2cccc3c2CCN(C(=O)/C(C#N)=C/C(C)(C)CF)C3C(C)C)C2(CC2)C1` (single isomer, unassigned) [Compound C77, (E/Z)-2-(5-((7-(2,6-dimethoxy-4-(1,4,5-trimethyl-6-oxo-1,6-dihydropyridin-3-yl)benzyl)-4,7-diazaspiro[2.5]octan-4-yl)methyl)-1-isopropyl-1,2,3,4-tetrahydroisoquinoline-2-carbonyl)-5-fluoro-4,4-dimethylpent-2-enenitrile], where the note is “Assay protocol 2”, the Dmax result is “+++ (+++ = ≥75%)” and the DC50 was less than 0.00125 µM.
As to `COc1cc(-c2cn(C)c(=O)c(C)c2C)cc(OC)c1CN1CCN(Cc2cccc3c2CCN(C(=O)/C(C#N)=C/C(C)(C)C)[C@H]3C(C)C)C2(CC2)C1` (single isomer, unassigned) [Compound C78, (E/Z)-2-(5-((7-(2,6-dimethoxy-4-(1,4,5-trimethyl-6-oxo-1,6-dihydropyridin-3-yl)benzyl)-4,7-diazaspiro[2.5]octan-4-yl)methyl)-1-isopropyl-1,2,3,4-tetrahydroisoquinoline-2-carbonyl)-4,4-dimethylpent-2-enenitrile], the half-maximal degradation concentration (DC50) (Assay protocol 2) is less than 0.00125 µM. Under setting [1], the greatest degradation seen (Dmax) was greater than 75%.
